Assay results from US10407437B2, “Camptothecin derivatives and uses thereof” (Los Gatos Pharmaceuticals, Inc., priority 2016, dated 2019).
Where two headings read alike, the source gives them in different places.

Legend:
HT29 cells = experiment: Anti-proliferative activity, AlamarBlue assay, HT29 cells; type: cell-based, human; conditions: for % inhibition compared to SN38 / inhibition at 33.3 µM: HT29 cells; for % inhibition compared to SN38: highest concentration tested, 100 μM; for IC50: HT29 human colorectal adenocarcinoma cells, 48-72 hours with compound, AlamarBlue, sigmoidal logistic regression curve, read-out: IC50 of anti-proliferative drugs in HT29 cells; for inhibition at 33.3 µM: Homo sapiens
Description: (§1) Human colorectal adenocarcinoma cell lines HT29 and SW620, as well as murine colon carcinoma cell line CT26, were purchased from the American Type Culture Collection (ATCC) and grown in either Dulbecco's Modified Eagle Medium (DMEM) or Roswell Park Memorial Institute (RPMI) medium from Corning and Life Technologies, respectively. These media were supplemented with 10% fetal bovine serum (FBS, Atlanta Biologicals), as well as 1 mM sodium pyruvate (Corning) and 10 mM HEPES (Fisher) for CT26 cells. Cells were grown in Corning 75 cm^2 flasks and split approximately 6 days before plating, with a refeed of fresh media the day prior to plating. Anti-proliferative drugs 2, 3 and SN38, were reconstituted in DMSO for storage at −20° C. until use. AlamarBlue, a colorimetric cell metabolism reagent, was purchased from Life Technologies.
To qualify AlamarBlue incubation time and required cell density, cells were plated into flat bottom 96 well plates (Techno Plastic Products, Trasadingen, Switzerland) at plating densities from 4×10^4 to 1.25×10^3 cells per well. The cells were incubated at 37° C. inside a Nu-Aire TS Autoflow incubator with 5% CO2 and humidity for 48-72 hours, AlamarBlue reagent was then added to all wells, equivalent to 10% of the culture volume or 20 μL. The plates were returned to the 37° C. incubator, and the absorbance at 570 and 600 nm were assessed using a Bio-Tek Epoch microplate reader at 1, 2, 4, 7 and in some experiment 24 hours post addition of AlamarBlue. Once the optimum cell density and incubation time was determined for each cell line, testing of the anti-proliferative drugs on the cells was initiated. For each cell line, cells were plated at 5×10^3 cells per well and incubated at 37° C. for 24 hours, at which time the anti-proliferative compounds were added. […] Aliquots of anti-proliferatives were thawed, diluted in media appropriate for each cell line, and serially diluted 1:3. A serial pipetter, was used to deliver 100 μl of each concentration of anti-proliferative compound to the appropriate wells in triplicate, the plate was tapped gently to mix, and then incubated at 37° C. for 48-72 hours. Control wells containing media alone and media with an equal percentage of DMSO in comparison to the initial anti-proliferative dilution were also established in each plate. After a minimum of 48 hours of incubation, 20 μl of AlamarBlue was added to each experimental well as well as the negative control wells. AlamarBlue positive control wells, containing 200 μl of 100% reduced AlamarBlue, were also established to provide a colorimetric endpoint reference for the assay. After addition of AlamarBlue, plates were incubated for 4 hours at 37° C. and absorbance assessed using the Epoch microplate reader. Absorbances were used to calculate the % inhibition for each well using the following equation, where O1 is the molar extinction coefficient of oxidized AlamarBlue at 570 nm (80586), O2 is the molar extinction coefficient of oxidized AlamarBlue at 600 nm (117216), A1 is the absorbance of the test wells at 570 nm, A2 is the absorbance of the test wells at 600 nm, P1 is the absorbance of the control wells with AlamarBlue but without test agent at 570, and P2 is the absorbance of the control wells with AlamarBlue but without the test agent at 600. % difference between=(O2×A1)−(O1×A2)×100treated and untreated cells (O2×P1)−(O1×P2)
(§2) The dose response data generated by these values was used to calculate the half maximal inhibitory concentration (IC50) using a regression curve (3 or 4 parameter logistic sigmoidal curve or sigmoidal sigmoid curve) in Sigma Plot, version 12.5. Statistical differences were calculated using SPSS Statistics software, version 17.0, using the independent t-test with an α of 0.05. […]

SW620 cells = experiment: Anti-proliferative activity, AlamarBlue assay, SW620 cells; type: cell-based, human; conditions: for IC50: SW620 human colorectal adenocarcinoma cells, 48-72 hours with compound, AlamarBlue, sigmoidal regression curve, read-out: IC50 of anti-proliferative drugs in SW620 cells
Description: as §1
To qualify AlamarBlue incubation time and required cell density, cells were plated into flat bottom 96 well plates (Techno Plastic Products, Trasadingen, Switzerland) at plating densities from 4×10^4 to 1.25×10^3 cells per well. The cells were incubated at 37° C. inside a Nu-Aire TS Autoflow incubator with 5% CO2 and humidity for 48-72 hours, AlamarBlue reagent was then added to all wells, equivalent to 10% of the culture volume or 20 μL. The plates were returned to the 37° C. incubator, and the absorbance at 570 and 600 nm were assessed using a Bio-Tek Epoch microplate reader at 1, 2, 4, 7 and in some experiment 24 hours post addition of AlamarBlue. Once the optimum cell density and incubation time was determined for each cell line, testing of the anti-proliferative drugs on the cells was initiated. […] After addition of AlamarBlue, plates were incubated for 4 hours at 37° C. and absorbance assessed using the Epoch microplate reader. Absorbances were used to calculate the % inhibition for each well using the following equation, where O1 is the molar extinction coefficient of oxidized AlamarBlue at 570 nm (80586), O2 is the molar extinction coefficient of oxidized AlamarBlue at 600 nm (117216), A1 is the absorbance of the test wells at 570 nm, A2 is the absorbance of the test wells at 600 nm, P1 is the absorbance of the control wells with AlamarBlue but without test agent at 570, and P2 is the absorbance of the control wells with AlamarBlue but without the test agent at 600. % difference between=(O2×A1)−(O1×A2)×100treated and untreated cells (O2×P1)−(O1×P2)
as §2

CT26 cells = experiment: Anti-proliferative activity, AlamarBlue assay, CT26 cells; type: cell-based; conditions: CT26 murine colon carcinoma cells, 48-72 hours with compound, 4 parameter regression curve, read-out: IC50 of anti-proliferative drugs in CT26 cells
Description: as §1
To qualify AlamarBlue incubation time and required cell density, cells were plated into flat bottom 96 well plates (Techno Plastic Products, Trasadingen, Switzerland) at plating densities from 4×10^4 to 1.25×10^3 cells per well. […] The plates were returned to the 37° C. incubator, and the absorbance at 570 and 600 nm were assessed using a Bio-Tek Epoch microplate reader at 1, 2, 4, 7 and in some experiment 24 hours post addition of AlamarBlue. Once the optimum cell density and incubation time was determined for each cell line, testing of the anti-proliferative drugs on the cells was initiated. […] After addition of AlamarBlue, plates were incubated for 4 hours at 37° C. and absorbance assessed using the Epoch microplate reader. […]
as §2

Row | Compound | % inhibition compared to SN38 (HT29 cells) | IC50 (HT29 cells; HT-29) | inhibition at 33.3 µM (HT29 cells; HT-29) | IC50 (SW620 cells; SW-620) | IC50 (CT26 cells; Mus musculus) | IC50 (HT29 cells) | % inhibition (SW620 cells; SW620 cells, throughout all concentrations tested (100 μM to 0.4 μM)) | IC50 (SW620 cells) | IC50 (CT26 cells)
1 | CCCCC(=O)O[C@]1(CC)C(=O)OCc2c1cc1n(c2=O)Cc2c-1nc1ccc(O)cc1c2CC [Compound 2] | not significantly different from SN38 | 5.6 µM | > 54% | 1.9 µM | 18 µM | – | – | – | –
2 | CCCCCCCCCCCCCC(=O)O[C@]1(CC)C(=O)OCc2c1cc1n(c2=O)Cc2c-1nc1ccc(O)cc1c2CC [Compound 3] | not significantly different from SN38 | 17.1 µM | > 54% | 10.3 µM | 14.2 µM | – | – | – | –
3 | CCc1c2c(nc3ccc(O)cc13)-c1cc3c(c(=O)n1C2)COC(=O)[C@]3(O)CC [SN38, reference compound] | – | – | – | – | – | 0.2 µM | over 55% | 0.7 µM | 0.6 µM
